Experimental data: PubChem BioAssay (NCI)
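A five-concentration, 48-hour dose response in 96-well plates underlies each endpoint, interpolated linearly between surrounding concentrations. At the GI50, growth is halved. TGI: total growth inhibition.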

Columns and labels:
Assay in all cases: NCI tumour cell line growth inhibition, 48 h
UACC-257 melanoma = tested on: UACC-257 melanoma
EKVX NSCLC = tested on: EKVX NSCLC
COLO 205 colon = tested on: COLO 205 colon
SNB-19 CNS = tested on: SNB-19 CNS
MCF7 breast = tested on: MCF7 breast
SK-MEL-2 melanoma = tested on: SK-MEL-2 melanoma
HL-60(TB) leukemia = tested on: HL-60(TB) leukemia
RXF 393 renal = tested on: RXF 393 renal
MOLT-4 leukemia = tested on: MOLT-4 leukemia
T-47D breast = tested on: T-47D breast
SF-539 CNS = tested on: SF-539 CNS
IGROV1 ovarian = tested on: IGROV1 ovarian
OVCAR-4 ovarian = tested on: OVCAR-4 ovarian
RPMI-8226 leukemia = tested on: RPMI-8226 leukemia
NCI-H226 lung = tested on: NCI-H226 lung
HCC-2998 colon = tested on: HCC-2998 colon
K-562 leukemia = tested on: K-562 leukemia
OVCAR-3 ovarian = tested on: OVCAR-3 ovarian
HCT-15 colon = tested on: HCT-15 colon
HS 578T breast = tested on: HS 578T breast
HOP-92 NSCLC = tested on: HOP-92 NSCLC
DU-145 prostate = tested on: DU-145 prostate
SK-MEL-28 melanoma = tested on: SK-MEL-28 melanoma
SW-620 colon = tested on: SW-620 colon
HT29 colon = tested on: HT29 colon
SK-OV-3 ovarian = tested on: SK-OV-3 ovarian
MDA-MB-231 breast = tested on: MDA-MB-231 breast
SNB-75 CNS = tested on: SNB-75 CNS
OVCAR-8 ovarian = tested on: OVCAR-8 ovarian
BT-549 breast = tested on: BT-549 breast
SF-268 CNS = tested on: SF-268 CNS
UACC-62 melanoma = tested on: UACC-62 melanoma
NCI-H460 lung = tested on: NCI-H460 lung
M14 melanoma = tested on: M14 melanoma
SR leukemia = tested on: SR leukemia
MDA-MB-435 = tested on: MDA-MB-435
KM12 colon = tested on: KM12 colon
786-0 renal = tested on: 786-0 renal
HCT-116 colon = tested on: HCT-116 colon
SF-295 CNS = tested on: SF-295 CNS
NCI/ADR-RES ovarian = tested on: NCI/ADR-RES ovarian
CCRF-CEM leukemia = tested on: CCRF-CEM leukemia
LOX IMVI melanoma = tested on: LOX IMVI melanoma
NCI-H23 lung = tested on: NCI-H23 lung
CAKI-1 renal = tested on: CAKI-1 renal
TK-10 renal = tested on: TK-10 renal
NCI-H522 lung = tested on: NCI-H522 lung
PC-3 prostate = tested on: PC-3 prostate
A549 NSCLC = tested on: A549 NSCLC
UO-31 renal = tested on: UO-31 renal
MALME-3M melanoma = tested on: MALME-3M melanoma
OVCAR-5 ovarian = tested on: OVCAR-5 ovarian
SK-MEL-5 melanoma = tested on: SK-MEL-5 melanoma
ACHN renal = tested on: ACHN renal
HOP-62 NSCLC = tested on: HOP-62 NSCLC
SN12C renal = tested on: SN12C renal
U251 CNS = tested on: U251 CNS

`CC(=O)OCc1cc[c]([Hg][Cl])o1` showed a GI50 (UACC-257 melanoma) of 13.5 µM, a TGI (UACC-257 melanoma) of 26.8 µM and a GI50 (EKVX NSCLC) of 12.4 µM. For the same molecule, the TGI (EKVX NSCLC) was 28.2 µM, the GI50 (COLO 205 colon) was 1.63 µM and the TGI (COLO 205 colon) was 3.29 µM. It also gave a GI50 (SNB-19 CNS) of 3.08 µM, a TGI (SNB-19 CNS) of 12 µM and a GI50 (MCF7 breast) of 0.994 µM. The TGI (MCF7 breast) was 18.3 µM, the GI50 (SK-MEL-2 melanoma) was 16.7 µM and the TGI (SK-MEL-2 melanoma) was 32.2 µM. The GI50 (HL-60(TB) leukemia) was 2.46 µM, the TGI (HL-60(TB) leukemia) was 6.28 µM and the GI50 (RXF 393 renal) was 5.12 µM. The TGI (RXF 393 renal) was 17.4 µM, the GI50 (MOLT-4 leukemia) was 2.07 µM and the TGI (MOLT-4 leukemia) was 8.46 µM. For the same molecule, the GI50 (T-47D breast) was 1.36 µM, the TGI (T-47D breast) was 3.98 µM and the GI50 (SF-539 CNS) was 4.97 µM. It also gave a TGI (SF-539 CNS) of 21.2 µM, a GI50 (IGROV1 ovarian) of 3.14 µM and a TGI (IGROV1 ovarian) of 10.4 µM. The GI50 (OVCAR-4 ovarian) was 12.7 µM, the TGI (OVCAR-4 ovarian) was 43 µM and the GI50 (RPMI-8226 leukemia) was 4.69 µM. For the same molecule, the TGI (RPMI-8226 leukemia) was 34.9 µM, the GI50 (NCI-H226 lung) was 19.4 µM and the TGI (NCI-H226 lung) was 45.5 µM. For the same molecule, the GI50 (HCC-2998 colon) was 15.4 µM, the TGI (HCC-2998 colon) was 29.2 µM and the GI50 (K-562 leukemia) was 0.991 µM. The TGI (K-562 leukemia) was 10.3 µM, the GI50 (OVCAR-3 ovarian) was 3.97 µM and the TGI (OVCAR-3 ovarian) was 16.2 µM. The GI50 (HCT-15 colon) was 1.62 µM, the TGI (HCT-15 colon) was 3.66 µM and the GI50 (HS 578T breast) was 9.99 µM. It also gave a TGI (HS 578T breast) of 65.6 µM, a GI50 (HOP-92 NSCLC) of 2.51 µM and a TGI (HOP-92 NSCLC) of 6.36 µM. It also gave a GI50 (DU-145 prostate) of 13.6 µM, a TGI (DU-145 prostate) of 26.4 µM and a GI50 (SK-MEL-28 melanoma) of 2.73 µM. It also gave a TGI (SK-MEL-28 melanoma) of 7.84 µM, a GI50 (SW-620 colon) of 1.6 µM and a TGI (SW-620 colon) of 3.82 µM. The GI50 (HT29 colon) was 5.61 µM, the TGI (HT29 colon) was 26.3 µM and the GI50 (SK-OV-3 ovarian) was 22.5 µM. It also gave a TGI (SK-OV-3 ovarian) of 53.6 µM, a GI50 (MDA-MB-231 breast) of 2.59 µM and a TGI (MDA-MB-231 breast) of 7.81 µM. The GI50 (SNB-75 CNS) was 12.8 µM, the TGI (SNB-75 CNS) was 51.4 µM and the GI50 (OVCAR-8 ovarian) was 11.4 µM. It also gave a TGI (OVCAR-8 ovarian) of 57.7 µM, a GI50 (BT-549 breast) of 6.43 µM and a TGI (BT-549 breast) of 19.3 µM. It also gave a GI50 (SF-268 CNS) of 8.78 µM, a TGI (SF-268 CNS) of 21.8 µM and a GI50 (UACC-62 melanoma) of 2.59 µM. For the same molecule, the TGI (UACC-62 melanoma) was 11.3 µM, the GI50 (NCI-H460 lung) was 15.5 µM and the TGI (NCI-H460 lung) was 45.6 µM. It also gave a GI50 (M14 melanoma) of 3.11 µM, a TGI (M14 melanoma) of 13 µM and a GI50 (SR leukemia) of 0.619 µM. For the same molecule, the TGI (SR leukemia) was 12.3 µM, the GI50 (MDA-MB-435) was 3.54 µM and the TGI (MDA-MB-435) was 15.5 µM. It also gave a GI50 (KM12 colon) of 16.8 µM, a TGI (KM12 colon) of 42.2 µM and a GI50 (786-0 renal) of 3.88 µM. For the same molecule, the TGI (786-0 renal) was 13.2 µM, the GI50 (HCT-116 colon) was 10.1 µM and the TGI (HCT-116 colon) was 24.3 µM. It also gave a GI50 (SF-295 CNS) of 14.3 µM, a TGI (SF-295 CNS) of 28.8 µM and a GI50 (NCI/ADR-RES ovarian) of 10.8 µM. The TGI (NCI/ADR-RES ovarian) was 39.1 µM, the GI50 (CCRF-CEM leukemia) was 2.08 µM and the TGI (CCRF-CEM leukemia) was 8.85 µM. For the same molecule, the GI50 (LOX IMVI melanoma) was 1.96 µM, the TGI (LOX IMVI melanoma) was 4.96 µM and the GI50 (NCI-H23 lung) was 12.1 µM. The TGI (NCI-H23 lung) was 29.7 µM, the GI50 (CAKI-1 renal) was 10.4 µM and the TGI (CAKI-1 renal) was 23.5 µM. For the same molecule, the GI50 (TK-10 renal) was 2.72 µM, the TGI (TK-10 renal) was 5.89 µM and the GI50 (NCI-H522 lung) was 0.709 µM. It also gave a TGI (NCI-H522 lung) of 2.45 µM, a GI50 (PC-3 prostate) of 11 µM and a TGI (PC-3 prostate) of 24.2 µM. For the same molecule, the GI50 (A549 NSCLC) was 21.8 µM, the TGI (A549 NSCLC) was 43.2 µM and the GI50 (UO-31 renal) was 1.82 µM. It also gave a TGI (UO-31 renal) of 3.45 µM, a GI50 (MALME-3M melanoma) of 1.6 µM and a TGI (MALME-3M melanoma) of 3.27 µM. For the same molecule, the GI50 (OVCAR-5 ovarian) was 11.8 µM, the TGI (OVCAR-5 ovarian) was 30.2 µM and the GI50 (SK-MEL-5 melanoma) was 4.38 µM. The TGI (SK-MEL-5 melanoma) was 15.9 µM, the GI50 (ACHN renal) was 1.81 µM and the TGI (ACHN renal) was 3.44 µM. The GI50 (HOP-62 NSCLC) was 13.8 µM, the TGI (HOP-62 NSCLC) was 28.6 µM and the GI50 (SN12C renal) was 5.24 µM. For the same molecule, the TGI (SN12C renal) was 29.9 µM, the GI50 (U251 CNS) was 2 µM and the TGI (U251 CNS) was 5.02 µM.
